Where two headings read alike, the source gives them in different places.
Experiments:
[1] = tested on: Plasmodium falciparum 3D7-A10 parasites; assay: Stage specificity assay (8-h exposure of synchronized stages, IC50^8h); assay type: cell-based; conditions: for IC50: Plasmodium falciparum
[2] = tested on: asynchronous 3D7-A10 parasite cultures; assay: Standard 72-h exposure asexual blood stage susceptibility assay (IC50^72h); assay type: cell-based, Plasmodium falciparum; conditions: Plasmodium falciparum, 3D7, 72 h, read-out: Overall (72hr assay) Mean IC50 (IC50^72h)
[3] = tested on: 3D7-MR4 trophozoite parasite-infected RBCs; assay: Metabolomic profiling (hydrophilic metabolite changes, UHPLC-MS); assay type: cell-based, Plasmodium falciparum

O=C(Nc1ccsc1C(=O)NC1CCCCC1)c1ccc(F)cc1 [MMV665939]
Ratio lowest IC50 8hr/IC50 72hr ([1]; 3D7-A10): 28.2 | IC50 ([1]; 3D7, read-out: Early rings Mean IC50 (IC50^8h), 8-h exposure 0–8 hr, 3D7-A10, survival at 60 h): 17 µM | IC50 ([1]; 3D7, read-out: Early trophozoites Mean IC50 (IC50^8h), 8-h exposure 16–24 hr, 3D7-A10, survival at 60 h): 13.5 µM | IC50 ([1]; 3D7, read-out: Late rings Mean IC50 (IC50^8h), 8-h exposure 8–16 hr, 3D7-A10, survival at 60 h): 22.9 µM | IC50 ([1]; 3D7, read-out: Late trophozoites Mean IC50 (IC50^8h), 8-h exposure 24–32 hr, 3D7-A10, survival at 60 h): 39 µM | IC50 ([1]; 3D7, read-out: Schizonts Mean IC50 (IC50^8h), 8-h exposure 32–40 hr, 3D7-A10, survival at 60 h): 54.4 µM | IC50^8h relative to IC50^72h value ([1]; most susceptible stages): > 28 fold | IC50 [2]: 0.478 µM | Log2(fold changes) 3-phosphoglycerate ([3]; metabolite 3-phosphoglycerate, log2 fold change): -0.3920 | Log2(fold changes) 4-Pyridoxic acid ([3]; metabolite 4-Pyridoxic acid, log2 fold change): -0.0874 | Log2(fold changes) 4-aminobutyrate ([3]; metabolite 4-aminobutyrate, log2 fold change): -0.3253 | Log2(fold changes) 4-phosphopantetheine ([3]; metabolite 4-phosphopantetheine, log2 fold change): 0.0000 | Log2(fold changes) 4-phosphopantothenate ([3]; metabolite 4-phosphopantothenate, log2 fold change): -0.8024 | Log2(fold changes) 5-aminopentanoic acid ([3]; metabolite 5-aminopentanoic acid, log2 fold change): 0.0000 | Log2(fold changes) 5-methyl-THF ([3]; metabolite 5-methyl-THF, log2 fold change): 0.0000 | Log2(fold changes) 5-phosphoribosyl-1-pyrophosphate ([3]; metabolite 5-phosphoribosyl-1-pyrophosphate, log2 fold change): 0.0000 | Log2(fold changes) 6-phospho-D-gluconate ([3]; metabolite 6-phospho-D-gluconate, log2 fold change): -0.2234 | Log2(fold change) HVDD ([3]; metabolite HVDD): -0.9968 | Log2(fold change) Hydroxyisocaproic acid ([3]; metabolite Hydroxyisocaproic acid): 0.0000 | Log2(fold change) IDP ([3]; metabolite IDP): 0.0000 | Log2(fold change) IMP ([3]; metabolite IMP): 0.0265 | Log2(fold change) Inositol ([3]; metabolite Inositol): 0.0000 | Log2(fold change) Isopentyl-PP ([3]; metabolite Isopentyl-PP): -0.3712 | Log2(fold change) L-arginino-succinate ([3]; metabolite L-arginino-succinate): -0.4465 | Log2(fold change) LD ([3]; metabolite LD): -0.2140 | Log2(fold change) Myristoyl/tetradecanoyl-CoA ([3]; metabolite Myristoyl/tetradecanoyl-CoA): 0.0000 | Log2(fold change) N-Acetyl-L-alanine ([3]; metabolite N-Acetyl-L-alanine): 1.1605 | Log2(fold change) N-acetyl-L-ornithine ([3]; metabolite N-acetyl-L-ornithine): -0.6303 | Log2(fold change) N-acetyl-glucosamine-1/6-phosphate ([3]; metabolite N-acetyl-glucosamine-1/6-phosphate): 0.0837 | Log2(fold change) N-acetyl-glutamate ([3]; metabolite N-acetyl-glutamate): -0.0309 | Log2(fold change) N-acetyl-glutamine ([3]; metabolite N-acetyl-glutamine): 0.1208 | Log2(fold change) N-carbamoyl-L-aspartate ([3]; metabolite N-carbamoyl-L-aspartate): 0.2551 | Log2(fold change) NAD+ ([3]; metabolite NAD+): -0.2042 | Log2(fold change) NADH ([3]; metabolite NADH): 0.1443 | Log2(fold change) NADP+ ([3]; metabolite NADP+): -0.0542 | Log2(fold change) NADPH ([3]; metabolite NADPH): 0.2171 | Log2(fold change) O-acetyl-L-serine ([3]; metabolite O-acetyl-L-serine): -0.2734 | Log2(fold change) Octoluse 8/1P ([3]; metabolite Octoluse 8/1P): -0.3337 | Log2(fold change) Octoluse Bisphosphate ([3]; metabolite Octoluse Bisphosphate): -0.2536 | Log2(fold change) PD ([3]; metabolite PD): -0.8727 | Log2(fold change) PE ([3]; metabolite PE): -0.7610 | Log2(fold change) PEE ([3]; metabolite PEE): -0.6388 | Log2(fold change) PEEK ([3]; metabolite PEEK): -0.8443 | Log2(fold change) PVNF ([3]; metabolite PVNF): -0.9198 | Log2(fold change) Pyroglutamic acid ([3]; metabolite Pyroglutamic acid): 0.4907 | Log2(fold change) Pyrophosphate ([3]; metabolite Pyrophosphate): 0.0000 | Log2(fold change) Ribose-5-phosphate ([3]; metabolite Ribose-5-phosphate): -0.6260 | Log2(fold change) S-adenosyl-L-homocysteine ([3]; metabolite S-adenosyl-L-homocysteine): 0.0358 | Log2(fold change) S-adenosyl-L-methioninamine ([3]; metabolite S-adenosyl-L-methioninamine): -2.1855 | Log2(fold change) S-adenosyl-L-methionine ([3]; metabolite S-adenosyl-L-methionine): 0.0000 | Log2(fold change) S-methyl-5'-thioadenosine ([3]; metabolite S-methyl-5'-thioadenosine): 0.4868 | Log2(fold change) SD ([3]; metabolite SD): -0.5679 | Log2(fold change) SDL ([3]; metabolite SDL): 0.0000 | Log2(fold change) SID ([3]; metabolite SID): -0.5481 | Log2(fold change) Sedoheptulose bisphosphate ([3]; metabolite Sedoheptulose bisphosphate): -0.1986 | Log2(fold change) Thiamine pyrophosphate ([3]; metabolite Thiamine pyrophosphate): -0.1355 | Log2(fold changes) UDP-D-glucose ([3]; metabolite UDP-D-glucose, log2 fold change): 0.0446 | Log2(fold changes) UDP-D-glucuronate ([3]; metabolite UDP-D-glucuronate, log2 fold change): -0.0014 | Log2(fold changes) UDP-N-acetyl-glucosamine ([3]; metabolite UDP-N-acetyl-glucosamine, log2 fold change): -0.0268 | Log2(fold changes) UDP ([3]; metabolite UDP, log2 fold change): -0.1898 | Log2(fold changes) UMP ([3]; metabolite UMP, log2 fold change): -0.0875 | Log2(fold changes) UTP ([3]; metabolite UTP, log2 fold change): 0.0000 | Log2(fold change) hydroxyphenylpyruvate ([3]; metabolite hydroxyphenylpyruvate): 0.0000 | Log2(fold change) hydroxyproline/Aminolevulinate ([3]; metabolite hydroxyproline/Aminolevulinate): -0.3323 | Log2(fold change) hypoxanthine ([3]; metabolite hypoxanthine): -0.1428 | Log2(fold change) indole ([3]; metabolite indole): 0.0000 | Log2(fold change) inosine ([3]; metabolite inosine): -0.4892 | Log2(fold change) isoleucine ([3]; metabolite isoleucine): 0.0000 | Log2(fold change) lactate ([3]; metabolite lactate): -0.3845 | Log2(fold change) leucine ([3]; metabolite leucine): 0.0000 | Log2(fold change) lysine ([3]; metabolite lysine): -0.8365 | Log2(fold change) malate ([3]; metabolite malate): -0.6264 | Log2(fold change) maleic acid ([3]; metabolite maleic acid): -0.6374 | Log2(fold change) methionine ([3]; metabolite methionine): -0.3116 | Log2(fold change) myo-inositol ([3]; metabolite myo-inositol): -0.4650 | Log2(fold change) nicotinamide mononucleotide ([3]; metabolite nicotinamide mononucleotide): -0.2358 | Log2(fold change) nicotinate ([3]; metabolite nicotinate): 0.0360 | Log2(fold change) ornithine ([3]; metabolite ornithine): -0.4311 | Log2(fold change) orotate ([3]; metabolite orotate): -0.0365 | Log2(fold change) orotidine-5'-phosphate ([3]; metabolite orotidine-5'-phosphate): -0.4342 | Log2(fold change) oxaloacetate ([3]; metabolite oxaloacetate): -0.0755 | Log2(fold change) p-aminobenzoate ([3]; metabolite p-aminobenzoate): 0.0000 | Log2(fold change) p-hydroxybenzoate ([3]; metabolite p-hydroxybenzoate): 0.0000 | Log2(fold change) pantothenate ([3]; metabolite pantothenate): -0.2337 | Log2(fold change) phenylalanine ([3]; metabolite phenylalanine): -0.4167 | Log2(fold change) phenylpyruvate ([3]; metabolite phenylpyruvate): 0.0000 | Log2(fold change) phosphoenolpyruvate ([3]; metabolite phosphoenolpyruvate): -0.3202 | Log2(fold change) prephenate ([3]; metabolite prephenate): -0.6614 | Log2(fold change) proline ([3]; metabolite proline): -0.2978 | Log2(fold change) pyridoxine ([3]; metabolite pyridoxine): -0.1996 | Log2(fold change) pyruvate ([3]; metabolite pyruvate): -0.7329 | Log2(fold change) riboflavin ([3]; metabolite riboflavin): 0.5336 | Log2(fold change) ribose ([3]; metabolite ribose): -0.3218 | Log2(fold change) ribose-phosphate ([3]; metabolite ribose-phosphate): -0.6165 | Log2(fold change) ribulose-5-phosphate ([3]; metabolite ribulose-5-phosphate): -0.5816 | Log2(fold change) serine ([3]; metabolite serine): -0.3504 | Log2(fold change) sn-glycerol-3-phosphate ([3]; metabolite sn-glycerol-3-phosphate): -0.3556 | Log2(fold change) succinate/Methylmalonic acid ([3]; metabolite succinate/Methylmalonic acid): -0.3870 | Log2(fold change) succinyl-CoA/methylmalonyl-CoA ([3]; metabolite succinyl-CoA/methylmalonyl-CoA): 0.0000 | Log2(fold change) taurine ([3]; metabolite taurine): -0.0411 | Log2(fold change) thiamine ([3]; metabolite thiamine): -0.2425 | Log2(fold change) threonine/homoserine ([3]; metabolite threonine/homoserine): -0.2222 | Log2(fold change) thymidine ([3]; metabolite thymidine): 0.0000 | Log2(fold changes) thymine ([3]; metabolite thymine, log2 fold change): 0.0000 | Log2(fold changes) trehalose-6-Phosphate ([3]; metabolite trehalose-6-Phosphate, log2 fold change): 0.0000 | Log2(fold changes) tryptophan ([3]; metabolite tryptophan, log2 fold change): -1.0924 | Log2(fold changes) tyrosine ([3]; metabolite tyrosine, log2 fold change): -0.3159 | Log2(fold changes) uridine ([3]; metabolite uridine, log2 fold change): 0.0000
